Assay results: publication PMC4184702 (Pharmacology Research & Perspectives, 2014)

Key:
[1] = Metabolic stability, cryopreserved hepatocytes, mouse; format: in vitro ADME; conditions: CD-1, 1.0E-06 M, 2 h
[2] = molecular target: T1, human α7-nAChR (Homo sapiens, UniProt P36544); assay: Two-electrode voltage-clamp recording in Xenopus oocytes, α7; format: cell-based
T1 construct: expressed in transfected cells; host or cells: Xenopus oocytes (cRNA injection)
Description: Xenopus oocytes were injected with cRNAs encoding human nicotinic receptor subunits (α4:β2 at 1:1 ratio or α7). Three to five days after injection, oocytes were individually placed in a custom made small volume chamber and continuously perfused with oocyte Ringer's solution (OR2; 92.5 mmol/L NaCl, 2.5 mmol/L KCl, 1 mmol/L CaCl2, 1 mmol/L MgCl2, and 5 mmol/L HEPES at pH 7.5). Drugs were delivered to the oocytes through a ValveLink8.2 computer-controlled perfusion system (Automate Scientific, Inc, Berkeley, CA). The chamber was grounded through an agar KCl bridge. The oocytes were voltage-clamped at −70 mV to measure agonist-induced currents using a GeneClamp 500B amplifier (Axon Instruments, Foster City, CA). The current signal was filtered at 20 Hz with the built-in four pole low-pass Bessel filter and digitized at 100 Hz.

[3] = molecular target: T2, human muscle-type α1β1γδ-nAChR (Homo sapiens, UniProt P02708+P07510+Q07001); assay: 86Rb+ ion efflux assay, TE671/RD cells; format: cell-based; conditions: 86Rb+ ion flux assay
T2 construct: TE671/RD naturally expresses human muscle-type α1*-nAChRs; endogenous in cells; host or cells: TE671/RD human clonal cell line
From the text: Cell lines naturally or heterologously expressing specific, functional, human nAChR subtypes were used. The human clonal cell line TE671/RD naturally expresses human muscle-type α1*-nAChRs, containing α1, β1, γ, and δ subunits, with function detectable using ^86Rb^+ efflux assays. […] These cells heterologously express human nAChR chimeric (α6/3) subunits (wherein the extracellular, N-terminal, ligand-binding domain of the human nAChR α6 subunit replaces that domain in the nAChR α3 subunit) along with human β2 and β3 subunits. […] Cells were passaged once a week by splitting just-confluent cultures 1/300 (TE671/RD), 1/10 (SH-SY5Y), or 1/40 (transfected SH-EP1) in serum-supplemented medium to maintain log-phase growth.
One newer modification on these techniques involves low temperature incubation before assays to increase the surface expression of high sensitivity (HS) relative to low sensitivity (LS) α4β2 nAChRs and to enhance surface expression of (α6/3)β2β3-nAChRs. […] In brief, this allows us to determine efficacies of test compounds at LS and HS α4β2 nAChRs, respectively, as the ordinate values of the linear regressions at abscissa values of 0% and 100% of sazetidine-A efficacy.
Results are normalized to responses to a fully efficacious concentration of carbamylcholine (see Materials and Methods for details). […]

[4] = molecular target: T3, 5-HT1B (Homo sapiens, UniProt P28222); assay: PDSP primary binding, 5-HT1B; conditions: n = 4, negative inhibition = stimulation of binding, read-out: Inhibition (primary binding competition efficacy), 5-HT1B
T3 construct: purchased NIMH Psychoactive Drug Screening Program (PDSP)
Description: (§1) For experimental details, please refer to the Psychoactive Drug Screening Program (PDSP) web site http://pdsp.med.unc.edu/.
(§2) ^a The default concentration for primary binding experiments is 10 µM (n = 4). ^b Negative inhibition represents a stimulation of binding. ^c BZPR: Benzodiazepine Receptors (rat brain site). ^d DOR: Delta Opioid Receptor; KOR: Kappa Opioid Receptor; MOR: Mu Opioid Receptor. ^e DAT: Dopamine Transporter; NET: Norepinephrine Transporter; SERT: Serotonin Transporter. ^f NMDA: N-methyl-D-aspartate receptor.

[5] = molecular target: T4, M3 muscarinic receptor (Homo sapiens, UniProt P20309); assay: PDSP primary binding, M3; conditions: n = 4, read-out: Inhibition (primary binding competition efficacy), M3
T4 construct: purchased NIMH Psychoactive Drug Screening Program (PDSP)
Description: as §1, §2

[6] = tested on: mGluR5; assay: PDSP primary binding, mGluR5; conditions: 10 µM, n = 4
Description: as §1, §2

[7] = molecular target: T5, MOR: Mu Opioid Receptor (Homo sapiens, UniProt P35372); assay: PDSP primary binding, MOR; conditions: n = 4, read-out: Inhibition (primary binding competition efficacy), MOR
T5 construct: purchased NIMH Psychoactive Drug Screening Program (PDSP)
Description: as §1, §2

[8] = tested on: BZPR: Benzodiazepine Receptors (rat brain site); assay: PDSP primary binding, BZPR; conditions: 10 µM, n = 4
Description: as §1, §2

[9] = tested on: NMDA: N-methyl-D-aspartate receptor; assay: PDSP primary binding, NMDA; conditions: 10 µM, n = 4
Description: as §1, §2

[10] = molecular target: T6, 5-HT7 (Homo sapiens, UniProt P34969); assay: PDSP primary binding, 5-HT7; conditions: n = 4, read-out: Inhibition (primary binding competition efficacy), 5-HT7
T6 construct: purchased NIMH Psychoactive Drug Screening Program (PDSP)
Description: as §1, §2

[11] = molecular target: hERG (human ether-a-go-go-related gene) (Homo sapiens, UniProt Q12809); assay: hERG inhibition assay; conditions: in words
[12] = tested on: σ 1 sigma receptor; assay: PDSP primary binding, σ 1; conditions: 10 µM, n = 4
Description: as §1, §2

[13] = tested on: strain TA98; assay: Ames test, strain TA98; format: cell-based
[14] = molecular target: T7, CYP1A (Homo sapiens, UniProt P05177); assay: CYP1A inhibition, HLM, phenacetin substrate; format: in vitro ADME; conditions: 1.0E-05 M
T7 construct: from tissue; host or cells: human liver microsomes (HLM)
From the text: Supplement prp20002-e00026-sd1.doc, table 3: Table 3.

[15] = tested on: GABAA; assay: PDSP primary binding, GABAA; conditions: 10 µM, n = 4
Description: as §1, §2

[16] = molecular target: T8, β3 adrenergic receptor (Homo sapiens, UniProt P13945); assay: PDSP primary binding, β3; conditions: n = 4, read-out: Inhibition (primary binding competition efficacy), β3
T8 construct: purchased NIMH Psychoactive Drug Screening Program (PDSP)
Description: as §1, §2

[17] = molecular target: T9, 5-HT5A (Homo sapiens, UniProt P47898); assay: PDSP primary binding, 5-HT5A; conditions: n = 4, read-out: Inhibition (primary binding competition efficacy), 5-HT5A
T9 construct: purchased NIMH Psychoactive Drug Screening Program (PDSP)
Description: as §1, §2

[18] = Metabolic stability, liver microsomes, human; format: in vitro ADME; conditions: 1.0E-06 M, 1 h
[19] = molecular target: T10, 5-HT2C (Homo sapiens, UniProt P28335); assay: PDSP primary binding, 5-HT2C; conditions: n = 4, read-out: Inhibition (primary binding competition efficacy), 5-HT2C
T10 construct: purchased NIMH Psychoactive Drug Screening Program (PDSP)
Description: as §1, §2

T1 sequence (P36544 23-502): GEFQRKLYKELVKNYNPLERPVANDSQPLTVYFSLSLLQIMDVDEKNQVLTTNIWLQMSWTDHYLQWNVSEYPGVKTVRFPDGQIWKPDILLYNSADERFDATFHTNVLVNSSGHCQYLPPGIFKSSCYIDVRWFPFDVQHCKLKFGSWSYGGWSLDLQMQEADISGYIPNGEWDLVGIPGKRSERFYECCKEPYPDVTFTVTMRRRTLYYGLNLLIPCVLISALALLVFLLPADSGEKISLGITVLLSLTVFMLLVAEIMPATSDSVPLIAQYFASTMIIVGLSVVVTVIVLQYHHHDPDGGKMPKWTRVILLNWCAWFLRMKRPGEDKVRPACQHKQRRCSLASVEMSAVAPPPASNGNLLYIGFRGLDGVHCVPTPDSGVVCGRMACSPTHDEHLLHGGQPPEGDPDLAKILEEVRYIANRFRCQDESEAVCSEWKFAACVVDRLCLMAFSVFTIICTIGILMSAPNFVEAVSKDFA
T9 sequence (P47898 whole entry): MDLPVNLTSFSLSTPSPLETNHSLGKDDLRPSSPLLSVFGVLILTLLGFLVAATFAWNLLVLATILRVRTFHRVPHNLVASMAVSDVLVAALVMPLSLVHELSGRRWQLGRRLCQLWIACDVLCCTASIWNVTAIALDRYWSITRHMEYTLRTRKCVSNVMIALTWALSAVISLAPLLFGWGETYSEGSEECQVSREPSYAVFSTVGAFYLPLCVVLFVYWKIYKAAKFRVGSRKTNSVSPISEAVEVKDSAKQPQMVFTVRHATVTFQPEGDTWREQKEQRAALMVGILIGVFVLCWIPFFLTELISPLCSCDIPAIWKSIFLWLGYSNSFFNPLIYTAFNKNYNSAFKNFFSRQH
T6 sequence (P34969 whole entry): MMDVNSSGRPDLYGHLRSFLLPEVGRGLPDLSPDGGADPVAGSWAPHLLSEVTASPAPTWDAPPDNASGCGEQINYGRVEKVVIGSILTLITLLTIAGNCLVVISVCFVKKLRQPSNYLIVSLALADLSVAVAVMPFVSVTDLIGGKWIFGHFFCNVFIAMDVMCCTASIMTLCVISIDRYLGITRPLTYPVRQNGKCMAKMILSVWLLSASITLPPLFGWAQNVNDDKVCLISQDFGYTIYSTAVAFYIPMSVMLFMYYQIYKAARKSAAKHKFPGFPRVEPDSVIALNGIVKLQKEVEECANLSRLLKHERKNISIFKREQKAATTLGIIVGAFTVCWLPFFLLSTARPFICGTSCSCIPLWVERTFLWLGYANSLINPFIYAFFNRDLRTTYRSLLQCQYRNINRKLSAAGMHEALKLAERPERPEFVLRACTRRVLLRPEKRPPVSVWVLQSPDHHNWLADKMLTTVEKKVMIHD
T10 sequence (P28335 33-458): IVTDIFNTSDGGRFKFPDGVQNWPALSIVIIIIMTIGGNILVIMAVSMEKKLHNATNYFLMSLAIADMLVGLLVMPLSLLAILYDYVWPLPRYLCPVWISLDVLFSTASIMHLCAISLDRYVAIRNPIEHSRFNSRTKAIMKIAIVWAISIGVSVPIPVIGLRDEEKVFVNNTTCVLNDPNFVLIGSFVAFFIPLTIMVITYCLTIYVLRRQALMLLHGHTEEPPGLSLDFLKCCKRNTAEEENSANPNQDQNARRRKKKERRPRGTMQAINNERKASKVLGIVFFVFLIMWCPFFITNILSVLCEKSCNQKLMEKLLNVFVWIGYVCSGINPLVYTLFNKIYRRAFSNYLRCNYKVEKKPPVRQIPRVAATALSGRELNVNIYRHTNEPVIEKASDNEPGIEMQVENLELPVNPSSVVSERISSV
T5 sequence (P35372 whole entry): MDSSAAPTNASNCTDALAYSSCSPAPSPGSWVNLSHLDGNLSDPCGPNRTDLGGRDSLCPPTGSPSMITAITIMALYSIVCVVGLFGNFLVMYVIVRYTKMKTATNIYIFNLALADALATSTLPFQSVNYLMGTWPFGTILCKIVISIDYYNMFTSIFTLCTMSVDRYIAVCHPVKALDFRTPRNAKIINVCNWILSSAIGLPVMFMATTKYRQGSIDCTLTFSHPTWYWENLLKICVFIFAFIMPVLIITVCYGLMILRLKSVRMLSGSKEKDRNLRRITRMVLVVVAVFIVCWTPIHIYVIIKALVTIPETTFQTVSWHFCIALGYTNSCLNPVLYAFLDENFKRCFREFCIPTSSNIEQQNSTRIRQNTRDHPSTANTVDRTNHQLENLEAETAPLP
T3 sequence (P28222 whole entry): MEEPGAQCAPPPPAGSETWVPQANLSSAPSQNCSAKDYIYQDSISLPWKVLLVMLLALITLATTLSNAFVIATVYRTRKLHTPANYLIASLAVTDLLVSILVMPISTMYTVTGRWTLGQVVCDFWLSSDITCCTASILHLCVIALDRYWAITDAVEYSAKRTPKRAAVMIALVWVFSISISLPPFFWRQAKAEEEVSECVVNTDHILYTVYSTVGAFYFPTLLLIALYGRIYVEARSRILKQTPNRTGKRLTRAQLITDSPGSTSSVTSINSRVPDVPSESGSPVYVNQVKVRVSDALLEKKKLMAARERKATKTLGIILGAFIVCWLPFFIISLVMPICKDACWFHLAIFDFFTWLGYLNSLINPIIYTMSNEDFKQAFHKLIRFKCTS
T8 sequence (P13945 whole entry): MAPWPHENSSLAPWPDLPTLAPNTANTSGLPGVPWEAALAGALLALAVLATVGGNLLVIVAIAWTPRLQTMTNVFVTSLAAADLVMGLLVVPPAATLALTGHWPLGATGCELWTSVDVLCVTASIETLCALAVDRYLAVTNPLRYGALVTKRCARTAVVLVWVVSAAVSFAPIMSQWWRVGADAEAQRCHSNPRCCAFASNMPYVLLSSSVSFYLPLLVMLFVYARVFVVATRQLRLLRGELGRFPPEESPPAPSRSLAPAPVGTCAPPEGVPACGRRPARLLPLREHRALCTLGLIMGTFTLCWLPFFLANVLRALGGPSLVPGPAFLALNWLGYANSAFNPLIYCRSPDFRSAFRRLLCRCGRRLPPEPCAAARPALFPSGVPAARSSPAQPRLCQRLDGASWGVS
Chain of hERG (human ether-a-go-go-related gene) (Q12809 whole entry): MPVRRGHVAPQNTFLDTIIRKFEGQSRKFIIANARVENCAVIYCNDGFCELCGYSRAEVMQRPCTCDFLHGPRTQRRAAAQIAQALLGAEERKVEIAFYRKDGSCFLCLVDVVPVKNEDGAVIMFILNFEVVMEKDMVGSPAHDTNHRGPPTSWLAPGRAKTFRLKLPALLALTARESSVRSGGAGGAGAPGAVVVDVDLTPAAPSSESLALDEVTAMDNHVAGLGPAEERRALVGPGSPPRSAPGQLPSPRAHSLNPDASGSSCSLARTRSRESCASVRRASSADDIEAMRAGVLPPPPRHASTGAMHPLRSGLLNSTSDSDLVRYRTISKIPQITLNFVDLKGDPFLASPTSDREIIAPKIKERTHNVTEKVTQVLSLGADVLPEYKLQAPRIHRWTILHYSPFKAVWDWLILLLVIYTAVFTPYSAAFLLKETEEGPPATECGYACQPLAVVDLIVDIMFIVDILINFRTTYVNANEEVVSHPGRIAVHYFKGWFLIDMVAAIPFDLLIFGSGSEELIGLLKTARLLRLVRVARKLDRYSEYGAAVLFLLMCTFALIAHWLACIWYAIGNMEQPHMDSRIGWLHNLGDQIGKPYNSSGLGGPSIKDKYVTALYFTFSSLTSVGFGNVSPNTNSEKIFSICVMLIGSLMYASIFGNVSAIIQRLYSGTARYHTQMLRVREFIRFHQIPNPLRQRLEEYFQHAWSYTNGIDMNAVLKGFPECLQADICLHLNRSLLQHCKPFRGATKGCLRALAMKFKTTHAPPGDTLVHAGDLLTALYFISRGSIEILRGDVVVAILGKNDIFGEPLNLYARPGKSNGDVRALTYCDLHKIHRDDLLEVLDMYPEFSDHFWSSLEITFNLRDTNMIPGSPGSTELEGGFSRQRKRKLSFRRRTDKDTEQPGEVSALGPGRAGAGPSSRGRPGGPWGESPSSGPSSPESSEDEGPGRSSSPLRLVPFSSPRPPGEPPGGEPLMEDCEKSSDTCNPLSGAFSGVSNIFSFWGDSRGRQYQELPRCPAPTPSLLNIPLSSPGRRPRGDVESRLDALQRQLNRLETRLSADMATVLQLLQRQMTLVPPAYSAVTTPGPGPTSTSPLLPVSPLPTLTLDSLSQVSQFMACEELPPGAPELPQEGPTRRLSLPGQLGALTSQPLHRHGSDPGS
T4 sequence (P20309 whole entry): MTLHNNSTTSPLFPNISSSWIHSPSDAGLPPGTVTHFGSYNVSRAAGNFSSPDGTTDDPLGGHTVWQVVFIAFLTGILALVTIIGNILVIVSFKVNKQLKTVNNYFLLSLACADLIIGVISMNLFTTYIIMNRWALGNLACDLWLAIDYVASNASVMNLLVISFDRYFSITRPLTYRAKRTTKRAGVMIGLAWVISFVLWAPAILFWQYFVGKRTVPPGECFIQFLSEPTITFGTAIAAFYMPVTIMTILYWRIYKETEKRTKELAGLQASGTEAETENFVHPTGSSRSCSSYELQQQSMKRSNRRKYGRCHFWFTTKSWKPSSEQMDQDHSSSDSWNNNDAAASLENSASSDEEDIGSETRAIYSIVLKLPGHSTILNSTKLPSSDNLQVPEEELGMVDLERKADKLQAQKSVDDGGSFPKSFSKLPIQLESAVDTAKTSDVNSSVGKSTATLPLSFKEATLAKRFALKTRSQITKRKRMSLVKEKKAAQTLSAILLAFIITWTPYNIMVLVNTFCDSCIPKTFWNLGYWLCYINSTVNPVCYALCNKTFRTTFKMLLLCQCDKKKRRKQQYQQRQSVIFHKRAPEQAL

## OCCc1cc(-c2cncc(OC[C@@H]3CCN3)c2)on1 [LF-3-88, 2-[5-[5-(2(S)-azetidinylmethoxyl)-3-pyridyl]-3-isoxazolyl]ethanol]
[1]
  Remaining (metabolic stability): 91%
[2]; 20 μmol/L
  agonist activity at α7-nAChRs in oocytes: lack of agonist activity
[2]; concentrations as high as 20 μmol/L
  effect at α7-nAChRs in oocytes: No effect
[2]; responses to 100 μmol/L ACh
  antagonist activity at α7-nAChR in oocytes: weak if any antagonist activity
[3]
  agonist or antagonist activity at muscle-type α1β1γδ-nAChRs: no significant agonist or antagonist activity
[4]
  inhibition at 10 µM: -7.9%
[5]
  inhibition at 10 µM: 0.9%
[6]
  Inhibition (primary binding competition efficacy), mGluR5: 6.6%
[7]
  inhibition at 10 µM: 5.7%
[8]
  Inhibition (primary binding competition efficacy), BZPR: 6.7%
[9]
  Inhibition (primary binding competition efficacy), NMDA: -4.7%
[10]
  inhibition at 10 µM: 1.1%
[11]
  profile in hERG inhibition assay: favorable profile
[12]
  Inhibition (primary binding competition efficacy), σ 1: 15.8%
[13]; strain TA98 + S9, 1.0E-04 M
  Ames test Result: Negative
[13]; strain TA98 + S9, 1.0E-05 M
  Ames test Result: Negative
[13]; strain TA98 + S9, 5.0E-05 M
  Ames test Result: Negative
[13]; strain TA98 + S9, 5.0E-06 M
  Ames test Result: Negative
[13]; strain TA98 – S9, 1.0E-04 M
  Ames test Result: Negative
[13]; strain TA98 – S9, 1.0E-05 M
  Ames test Result: Negative
[13]; strain TA98 – S9, 5.0E-05 M
  Ames test Result: Negative
[13]; strain TA98 – S9, 5.0E-06 M
  Ames test Result: Negative
[13]; with or without S9, 5, 10, 50, or 100 μmol/L
  mutagenic potential (Ames), TA98: negative
[14]
  CYP1A Inhibition: 13%
[15]
  Inhibition (primary binding competition efficacy), GABAA: -7.6%
[16]
  inhibition at 10 µM: 28.3%
[17]
  inhibition at 10 µM: 13.2%
[18]
  Remaining (metabolic stability): 89%
[19]
  inhibition at 10 µM: 22.7%
